This is an account of results in PubChem BioAssay (NCI).

Structures are written as SMILES. Several values for one entry are separate records, joined by “and”; a condition that tells them apart may be missing. Equal values may be shown once.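 Step 1: Grow cells in 96-well plates. Step 2: Expose to compound for 48 hours at 5 concentrations. Step 3: Interpolate endpoints linearly; if unreached, use highest concentration. At the GI50, growth is halved. The concentration for full growth arrest is given as TGI.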 Bounds are passed on as bounds.

Among the test systems are UACC-62 melanoma; SK-MEL-28 melanoma; T-47D breast; OVCAR-4 ovarian; COLO 205 colon; RXF 393 renal; CAKI-1 renal; NCI-H522 lung; SN12C renal; SR leukemia.
Common to all, as to assay: growth of human tumour cells (NCI), 48 h

Regarding `COc1ccc2nc3ccc(OC)cc3c(SCCO)c2c1`, the TGI in the assay on UACC-62 melanoma was above 100 µM; in the assay with SK-MEL-28 melanoma, above 100 µM; with T-47D breast, above 100 µM; in the assay on OVCAR-4 ovarian it was above 100 µM; in the assay with COLO 205 colon it was above 64.3 µM; in the assay with RXF 393 renal it was above 100 µM. Besides, the TGI in the assay on CAKI-1 renal is above 100 µM; with NCI-H522 lung it was above 34.9 µM; in the assay on SN12C renal, above 100 µM; with SR leukemia it was above 79.1 µM.

For `COc1ccc2nc3c([N+](=O)[O-])ccc4c3c(c2c1)NCCN4CCO`, the TGI in the assay on UACC-62 melanoma amounted to 1.07 µM; in the assay with SK-MEL-28 melanoma it was 2.03 µM; with T-47D breast, 3.68 µM; with OVCAR-4 ovarian, 2.39 µM; with COLO 205 colon, 1.74 µM; in the assay on RXF 393 renal it was 1.78 µM. The TGI with CAKI-1 renal worked out at 3.06 µM; with NCI-H522 lung it was 1.24 µM; in the assay on SN12C renal, 2.34 µM; with SR leukemia, 0.455 µM.

Regarding `NC(N)=N/N=C/c1nc2n(c1[N+](=O)[O-])CCS2`, the TGI is above 100 µM in the assay on UACC-62 melanoma; above 100 µM in the assay with SK-MEL-28 melanoma; 67.4 µM in the assay with T-47D breast; 41 µM in the assay with OVCAR-4 ovarian; 27.4 µM in the assay with COLO 205 colon; 65.3 µM in the assay with RXF 393 renal. Besides, the TGI in the assay on CAKI-1 renal was above 100 µM; in the assay on NCI-H522 lung it was above 100 µM; in the assay on SN12C renal, above 100 µM; in the assay with SR leukemia it was 88.2 µM.

With `CC(=O)OCCCOCn1c(Cc2ccccc2)c(C)c(=O)[nH]c1=O`, the TGI in the assay with UACC-62 melanoma, in the assay on SK-MEL-28 melanoma, with T-47D breast, in the assay with OVCAR-4 ovarian, with COLO 205 colon and in the assay with RXF 393 renal was above 100 µM each time. Besides, the TGI in the assay on CAKI-1 renal, in the assay on NCI-H522 lung, in the assay on SN12C renal and in the assay on SR leukemia was above 100 µM throughout.

Take `O=S(=O)(c1ccccc1)n1c2ccc(Br)cc2c2nc3ccccc3nc21`: the TGI in the assay on UACC-62 melanoma, in the assay on SK-MEL-28 melanoma, in the assay on T-47D breast, with OVCAR-4 ovarian, in the assay on COLO 205 colon and in the assay with RXF 393 renal was above 100 µM each time. Also, the TGI in the assay with CAKI-1 renal, in the assay with NCI-H522 lung, in the assay with SN12C renal and in the assay with SR leukemia was above 100 µM each time.

Regarding `C[C@H](CCC(=O)NCCS(=O)(=O)O)[C@H]1CC[C@H]2[C@@H]3CC[C@@H]4C[C@H](O)CC[C@]4(C)[C@H]3CC[C@]12C`, the TGI with UACC-62 melanoma, in the assay on SK-MEL-28 melanoma, in the assay on T-47D breast, in the assay on OVCAR-4 ovarian, in the assay on COLO 205 colon and with RXF 393 renal was above 100 µM in each case. In addition, the TGI with CAKI-1 renal, with NCI-H522 lung, in the assay with SN12C renal and in the assay with SR leukemia was above 100 µM each time.

Turning to `CCCN(CCCC(NC(C)=O)C(=O)NCc1ccccc1)C(=O)N(CCCl)N=O` (stereo unspecified), the TGI in the assay on UACC-62 melanoma was 12.6 µM; in the assay with SK-MEL-28 melanoma it was 35.1 µM; in the assay with T-47D breast it was above 100 µM; in the assay with OVCAR-4 ovarian, above 85 µM; with COLO 205 colon, 42.6 µM; in the assay on RXF 393 renal, 35 µM. The TGI in the assay on CAKI-1 renal is 62.4 µM; in the assay with NCI-H522 lung, 29.2 µM; in the assay with SN12C renal, above 76.1 µM; in the assay with SR leukemia it was 17.5 µM.

On to `O=C(/C=C/c1ccc(O)cc1)c1ccc2c(c1)OCO2`, for which the TGI is 47.6 µM in the assay with UACC-62 melanoma; 42.3 µM with SK-MEL-28 melanoma; 75.3 µM in the assay with T-47D breast; 48 µM in the assay with OVCAR-4 ovarian; 32 µM in the assay on COLO 205 colon; 38.7 µM in the assay on RXF 393 renal. For the same molecule, the TGI stood at 35.3 µM in the assay with CAKI-1 renal, 34.2 µM with NCI-H522 lung, 30.7 µM with SN12C renal and 33.6 µM with SR leukemia.

As for `O=S(=O)(O)c1cc(O)c2c(N=Cc3ccccc3O)cc(S(=O)(=O)O)cc2c1`, the TGI in the assay on UACC-62 melanoma, with SK-MEL-28 melanoma, with T-47D breast, in the assay with OVCAR-4 ovarian, in the assay with COLO 205 colon and in the assay with RXF 393 renal was above 100 µM each time. The TGI in the assay on CAKI-1 renal, with NCI-H522 lung, in the assay with SN12C renal and in the assay on SR leukemia was above 100 µM each time.

Regarding `CC(=O)N=C1N(/C=C2\C(=O)Oc3ccccc3C2=O)C(=O)/C(=C/c2ccc(OC(C)=O)cc2)N1C`, the TGI in the assay on UACC-62 melanoma, in the assay with SK-MEL-28 melanoma, with T-47D breast, with OVCAR-4 ovarian, in the assay on COLO 205 colon and in the assay on RXF 393 renal was above 100 µM each time. In addition, the TGI in the assay on CAKI-1 renal, in the assay with NCI-H522 lung, in the assay with SN12C renal and with SR leukemia was above 100 µM in each case.

Consider `OC(c1cc2ccccc2o1)c1cc2ccccc2s1` (stereo unspecified), for which the TGI in the assay with UACC-62 melanoma, in the assay on SK-MEL-28 melanoma, with T-47D breast, in the assay on OVCAR-4 ovarian, in the assay with COLO 205 colon and in the assay on RXF 393 renal was above 10 µM in each case. In addition, the TGI in the assay with CAKI-1 renal, with NCI-H522 lung, in the assay with SN12C renal and in the assay with SR leukemia was above 10 µM throughout.

In the case of `COC(=O)CCC(=O)NC1=C(NCc2ccccc2)C(=O)c2ccccc2C1=O`, the TGI with UACC-62 melanoma is 33.1 µM; with SK-MEL-28 melanoma it was above 100 µM; in the assay with T-47D breast, above 100 µM; with OVCAR-4 ovarian, 49.8 µM; with COLO 205 colon, 76.1 µM; in the assay on RXF 393 renal it was above 100 µM. Also, the TGI with CAKI-1 renal is 72.8 µM; in the assay on NCI-H522 lung, 50 µM; in the assay with SN12C renal it was 88.2 µM; with SR leukemia it was above 100 µM.

Consider `COC(=O)NCCc1[nH]nc2c1C(=O)C=C(N1CCOCC1)C2=O`, for which the TGI in the assay on UACC-62 melanoma, in the assay on SK-MEL-28 melanoma, in the assay on T-47D breast, with OVCAR-4 ovarian, with COLO 205 colon and with RXF 393 renal was above 100 µM each time. Further, the TGI with CAKI-1 renal, in the assay with NCI-H522 lung, with SN12C renal and in the assay with SR leukemia was above 100 µM throughout.

Take `N#CCc1n[nH]c(Cc2ccccc2)n1`: the TGI in the assay with UACC-62 melanoma, with SK-MEL-28 melanoma, with T-47D breast, in the assay with OVCAR-4 ovarian, in the assay on COLO 205 colon and in the assay with RXF 393 renal was above 100 µM in each case. Moreover, the TGI with CAKI-1 renal, in the assay with NCI-H522 lung, in the assay with SN12C renal and in the assay with SR leukemia was above 100 µM each time.

For the molecule `Oc1ccc(-c2nc(-c3cccnc3)c(-c3ccc(Cl)cc3)[nH]2)cc1O`, the TGI is 23.3 µM with UACC-62 melanoma; 36.2 µM in the assay with SK-MEL-28 melanoma; 37.9 µM with T-47D breast; 51.6 µM in the assay on OVCAR-4 ovarian; 30.3 µM in the assay with COLO 205 colon; 25.6 µM in the assay on RXF 393 renal. In addition, the TGI in the assay with CAKI-1 renal was 46.7 µM; in the assay with NCI-H522 lung it was 4.68 µM; in the assay on SN12C renal, 31.3 µM; with SR leukemia it was above 100 µM.

On to `C[C@]12CC[C@H]3[C@@H](CC=C4C[C@@H](N5CCCC5)CC[C@@]43C)[C@@H]1C[C@H](N1CCOCC1)[C@@H]2O`, for which the TGI in the assay on UACC-62 melanoma, in the assay on SK-MEL-28 melanoma, with T-47D breast, with OVCAR-4 ovarian, with COLO 205 colon and with RXF 393 renal was above 100 µM throughout. For the same molecule, the TGI in the assay on CAKI-1 renal is above 100 µM; in the assay with NCI-H522 lung, above 100 µM; in the assay with SN12C renal it was above 100 µM; in the assay with SR leukemia, 71.5 µM.

For `COc1ccc2c(CCN)c(C(=O)O)[nH]c2c1`, the TGI with UACC-62 melanoma, with SK-MEL-28 melanoma, in the assay with T-47D breast, in the assay on OVCAR-4 ovarian, with COLO 205 colon and in the assay on RXF 393 renal was above 100 µM in each case. For the same molecule, the TGI in the assay on CAKI-1 renal is above 100 µM; in the assay on NCI-H522 lung, above 100 µM; in the assay on SN12C renal it was above 100 µM; in the assay on SR leukemia it was above 43.7 µM.

As for `CN(C)CCNC(=O)c1cccc2c(NCCN(C)C)c3ccccc3nc12`, the TGI in the assay on UACC-62 melanoma is 9.19 µM; with SK-MEL-28 melanoma, 28.6 µM; with T-47D breast it was above 83.6 µM; with OVCAR-4 ovarian it was 8.68 µM; with COLO 205 colon, 7.23 µM; in the assay with RXF 393 renal, 14.2 µM. Further, the TGI is 12.7 µM in the assay with CAKI-1 renal, 2.97 µM in the assay on NCI-H522 lung, 5.94 µM in the assay on SN12C renal and 3.45 µM in the assay on SR leukemia.

With `CC(=O)OC(/C=C/c1ccccc1)P1(=O)N(CC(C)(C)C)[C@@H]2CCCC[C@H]2N1CC(C)(C)C` (stereo partly specified), the TGI is 21.1 µM and 23.2 µM with UACC-62 melanoma; 34.4 µM and 28.5 µM with SK-MEL-28 melanoma; 9.04 µM and 6.4 µM with T-47D breast; 20.5 µM and 19.7 µM in the assay on OVCAR-4 ovarian; 13.2 µM and 10.8 µM with COLO 205 colon; 22 µM and 14.5 µM in the assay on RXF 393 renal. The TGI in the assay on CAKI-1 renal is 31.3 µM and 23.6 µM; in the assay with NCI-H522 lung it was 13.3 µM and 12.8 µM; in the assay on SN12C renal, 22.6 µM and 21.6 µM; with SR leukemia, 19.5 µM and 14.5 µM. Also, the GI50 in the assay with T-47D breast was 2.9 µM and 1.18 µM.

For `COC(=O)C(Cc1c(C2Nc3ccccc3C2CC(NC(=O)CNC(C)=O)C(=O)OC)[nH]c2ccccc12)NC(=O)CNC(C)=O` (stereo unspecified), the TGI with UACC-62 melanoma, in the assay on SK-MEL-28 melanoma, in the assay with T-47D breast, with OVCAR-4 ovarian, in the assay with COLO 205 colon and with RXF 393 renal was above 100 µM throughout. Also, the TGI in the assay on CAKI-1 renal, in the assay with NCI-H522 lung, in the assay with SN12C renal and in the assay with SR leukemia was above 100 µM in each case.

`Nn1c(COc2cccc(OCc3n[nH]c(=S)n3N)c2)n[nH]c1=S`: the TGI in the assay on UACC-62 melanoma, in the assay with SK-MEL-28 melanoma, in the assay on T-47D breast, with OVCAR-4 ovarian, in the assay with COLO 205 colon and in the assay with RXF 393 renal was above 100 µM in each case. Also, the TGI is above 100 µM with CAKI-1 renal, above 100 µM with NCI-H522 lung, above 100 µM in the assay on SN12C renal and 34.6 µM in the assay with SR leukemia.
